Results on nine compounds are retold here after patent publication US7153844B2, “Estrogen-linked platinum (II) complexes as anticancer agents” (priority 2002, dated 2006).

Assay in all cases: Cell proliferation with the MTT assay
Assay type in all cases: cell-based, human

For one experiment, the system named is A2780cp. The note with it: read-out: IC50 (Inhibitory concentration 50%), ovary, ER−, NR = IC50 not reach at the concentrations tested. From the text: (§1) Cell Proliferation with the MTT Assay (Uterine, Ovarian and Breast Cancer Cell Lines)
(§2) Several human uterine, ovarian and breast cancer cell lines were used to evaluate the antitumor activities of the new estrogen-linked platinum (II) complexes. The cytotoxicity of the platinum (II) complexes was done along with cisplatin as the control on both ER+ and ER— human uterine, ovarian and breast carcinomas. Cell proliferation was done with the MTT assay as described by J. Carmichael et al. (Cancer Res. 47, 943–946 (1987) see also C. H. J. Ford et al., Cancer Chemother. Pharmacol. 24, 295–301 (1986)). The MTT assay is based on the ability of viable cells to reduce a soluble colorless tetrazolium salt, 3-(4,5-dimethylthiazol-2-yl)-2,5-diphenyltetrazolium bromide (MTT), into an insoluble blue formazan derivative.

Another experiment relates to A2780wt. The note with it: read-out: IC50 (Inhibitory concentration 50%), ovary, ER−, NR = IC50 not reach at the concentrations tested.
Text: as §1, §2

The next experiment concerns HEC-1A. The note with it: read-out: IC50 (Inhibitory concentration 50%), uterus, ER−, NR = IC50 not reach at the concentrations tested.
Text: as §1, §2

For a further experiment, the system named is HS578T. The note with it: read-out: IC50 (Inhibitory concentration 50%), breast, ER−, NR = IC50 not reach at the concentrations tested.
Text: as §1, §2

The next experiment concerns HeLa. The note with it: read-out: IC50 (Inhibitory concentration 50%), uterus, ER−, NR = IC50 not reach at the concentrations tested.
Text: as §1, §2

Another experiment has as its system Ishikawa. The note with it: read-out: IC50 (Inhibitory concentration 50%), uterus, ER+, NR = IC50 not reach at the concentrations tested.
Text: as §1, §2

The subject of a further experiment is KLE. Particulars: read-out: IC50 (Inhibitory concentration 50%), uterus, ER−, NR = IC50 not reach at the concentrations tested.
Text: as §1, §2

The next experiment deals with MCF-7. Particulars: read-out: IC50 (Inhibitory concentration 50%), MCF-7, breast, ER+, NR = IC50 not reach at the concentrations tested.
Text: as §1, §2

The next experiment relates to MDA-MB-231. The note with it: read-out: IC50 (Inhibitory concentration 50%), MDA-MB-231, breast, ER−, NR = IC50 not reach at the concentrations tested.
Text: as §1, §2

A further experiment relates to OVCAR-3. The note with it: read-out: IC50 (Inhibitory concentration 50%), OVCAR-3, ovary, ER+, NR = IC50 not reach at the concentrations tested.
Text: as §1, §2

Another experiment relates to RL-95-2. The note with it: read-out: IC50 (Inhibitory concentration 50%), RL-95-2, uterus, ER+, NR = IC50 not reach at the concentrations tested.
Text: as §1, §2

The subject of a further experiment is SKOV-3. The note with it: read-out: IC50 (Inhibitory concentration 50%), SKOV-3, ovary, ER+, NR = IC50 not reach at the concentrations tested.
Text: as §1, §2

In another experiment the test system is ZR-75-1. Particulars: read-out: IC50 (Inhibitory concentration 50%), ZR-75-1, breast, ER+, NR = IC50 not reach at the concentrations tested.
Text: as §1, §2

For “16β-hydroxymethyl-16α-[8′-(2-pyridin-2-yl-ethylamino)-3′,6′-dioxaoctyl]-1,3,5(10)-estratrien-3,17β-diol dichloroplatinum (II) [derivative 23]”, the IC50 with A2780cp amounted to 16 µM; in the experiment on A2780wt it was 7.9 µM; with HEC-1A, 20.4 µM; in the experiment with HS578T it was 16.2 µM; in the experiment with HeLa, 13.8 µM; with Ishikawa it was 2.5 µM. Moreover, the IC50 in the experiment with KLE came out at 17.5 µM; in the experiment on MCF-7, 12.7 µM; with MDA-MB-231 it was 18.8 µM; in the experiment with OVCAR-3, 33.8 µM; in the experiment with RL-95-2, 6.25 µM; in the experiment with SKOV-3, 32.5 µM. Besides, the IC50 with ZR-75-1 amounted to 14.6 µM.
As for `C[C@]12CCC3c4ccc(O)cc4CCC3C1C[C@@](CO)(CCCCNCc1ccccn1)[C@@H]2O.[Cl][Pt][Cl]` (stereo partly drawn) [derivative 14 (∘ = 1, p = 2), 16β-hydroxymethyl-16α-[4-(1-pyridin-2-yl-methylamino)-butyl]-1,3,5(10)-estratrien-3,17β-diol dichloroplatinum (II)], the IC50 is more than 40 µM in the experiment on A2780cp; 33.7 µM with A2780wt; more than 40 µM in the experiment with HEC-1A; more than 40 µM in the experiment with HS578T; more than 40 µM with HeLa; 36 µM with Ishikawa. Also, the IC50 in the experiment on KLE is more than 40 µM; in the experiment with MCF-7, more than 40 µM; in the experiment with MDA-MB-231, more than 40 µM; in the experiment on OVCAR-3 it was more than 40 µM; in the experiment with RL-95-2 it was 40 µM; with SKOV-3, more than 40 µM. Also, the IC50 with ZR-75-1 is more than 40 µM.
Consider `C[C@]12CCC3c4ccc(O)cc4CCC3C1C[C@@](CO)(CCCCCCNCc1ccccn1)[C@@H]2O.[Cl][Pt][Cl]` (stereo partly drawn) [derivative 14 (∘ = 1, p = 4), 16β-hydroxymethyl-16α-[6-(1-pyridin-2-yl-methylamino)-hexyl]-1,3,5(10)-estratrien-3,17β-diol dichloroplatinum (II)], for which the IC50 with A2780cp is more than 40 µM; with A2780wt it was 23.5 µM; with HEC-1A it was 19.5 µM; in the experiment with HS578T it was 36.2 µM; in the experiment on HeLa it was 36.2 µM; in the experiment on Ishikawa, more than 40 µM. For the same compound, the IC50 with KLE was 36.2 µM; with MCF-7, more than 40 µM; in the experiment with MDA-MB-231, more than 40 µM; in the experiment with OVCAR-3, more than 40 µM; in the experiment on RL-95-2, 16 µM; in the experiment on SKOV-3, more than 40 µM. In the experiment with ZR-75-1, the IC50 is more than 40 µM.
With `C[C@]12CCC3c4ccc(O)cc4CCC3C1C[C@@](CO)(CCCCCCCCNCc1ccccn1)[C@@H]2O.[Cl][Pt][Cl]` (stereo partly drawn) [derivative 14 (∘ = 1, p = 6), 16β-hydroxymethyl-16α-[8-(1-pyridin-2-yl-methylamino)-octyl]-1,3,5(10)-estratrien-3,17β-diol dichloroplatinum (II)], the IC50 stood at 11 µM in the experiment with A2780cp; 6.3 µM in the experiment on A2780wt; 9.2 µM in the experiment on HEC-1A; 17.5 µM in the experiment on HS578T; 34.4 µM with HeLa; 19.5 µM in the experiment with Ishikawa. Moreover, the IC50 in the experiment on KLE was 19.5 µM; with MCF-7 it was 20 µM; in the experiment with MDA-MB-231, 40 µM; with OVCAR-3, 18.8 µM; in the experiment on RL-95-2 it was 7.8 µM; with SKOV-3 it was 35 µM. Moreover, the IC50 in the experiment on ZR-75-1 came to 11.2 µM.
With `C[C@]12CCC3c4ccc(O)cc4CCC3C1C[C@@](CO)(CCCCCCCCCCNCc1ccccn1)[C@@H]2O.[Cl][Pt][Cl]` (stereo partly drawn) [derivative 14 (∘ = 1, p = 8), 16β-hydroxymethyl-16α-[10-(1-pyridin-2-yl-methylamino)-decyl]-1,3,5(10)-estratrien-3,17β-diol dichloroplatinum (II)], the IC50 in the experiment with A2780cp was 16.6 µM; in the experiment with A2780wt, 10 µM; in the experiment on HEC-1A it was 15.6 µM; in the experiment on HS578T, 34.9 µM; in the experiment on HeLa, 32.2 µM; in the experiment on Ishikawa, more than 40 µM. The IC50 in the experiment with KLE was 9.5 µM; in the experiment with MCF-7, 17.7 µM; with MDA-MB-231 it was 15.3 µM; in the experiment on OVCAR-3, 40 µM; in the experiment on RL-95-2 it was 9.5 µM; in the experiment with SKOV-3 it was more than 40 µM. In the experiment on ZR-75-1, the IC50 was found to be 27.6 µM.
Regarding `C[C@]12CCC3c4ccc(O)cc4CCC3C1C[C@@](CO)(CCCCNCCc1ccccn1)[C@@H]2O.[Cl][Pt][Cl]` (stereo partly drawn) [derivative 14 (∘ = 2, p = 2), 16β-hydroxymethyl-16α-[4-(2-pyridin-2-yl-ethylamino)-butyl]-1,3,5(10)-estratrien-3,17β-diol dichloroplatinum (II)], the IC50 in the experiment with A2780cp amounted to 30.5 µM; in the experiment on A2780wt, 19.5 µM; with HEC-1A, 26.3 µM; with HS578T, 33 µM; in the experiment with HeLa it was 34.5 µM; in the experiment on Ishikawa, 16 µM. Besides, the IC50 was more than 40 µM with KLE; 28.5 µM in the experiment on MCF-7; more than 40 µM in the experiment with MDA-MB-231; 31.2 µM with OVCAR-3; 10 µM in the experiment with RL-95-2; 35.6 µM with SKOV-3. For the same compound, the IC50 in the experiment with ZR-75-1 stood at 26.3 µM.
With `C[C@]12CCC3c4ccc(O)cc4CCC3C1C[C@@](CO)(CCCCCCNCCc1ccccn1)[C@@H]2O.[Cl][Pt][Cl]` (stereo partly drawn) [derivative 14 (∘ = 2, p = 4), 16β-hydroxymethyl-16α-[6-(2-pyridin-2-yl-ethylamino)-hexyl]-1,3,5(10)-estratrien-3,17β-diol dichloroplatinum (II)], the IC50 in the experiment with A2780cp was 7 µM; in the experiment with A2780wt it was 5 µM; with HEC-1A, 6.4 µM; with HS578T, 7.25 µM; in the experiment with HeLa, 8.9 µM; in the experiment with Ishikawa, 20 µM. The IC50 is 8.9 µM with KLE; 7 µM with MCF-7; more than 40 µM with MDA-MB-231; 12.5 µM with OVCAR-3; 6.4 µM in the experiment on RL-95-2; 12.5 µM in the experiment with SKOV-3. The IC50 in the experiment with ZR-75-1 was determined as 11.4 µM.
With `C[C@]12CCC3c4ccc(O)cc4CCC3C1C[C@@](CO)(CCCCCCCCNCCc1ccccn1)[C@@H]2O.[Cl][Pt][Cl]` (stereo partly drawn) [derivative 14 (∘ = 2, p = 6), 16β-hydroxymethyl-16α-[8′-(2-pyridin-2-yl-ethylamino)-octyl]-1,3,5(10)-estratrien-3,17β-diol dichloroplatinum (II)], the IC50 was determined as 3.6 µM with A2780cp; 3.3 µM in the experiment on A2780wt; 2.1 µM in the experiment with HEC-1A; 4.3 µM in the experiment on HS578T; 4.6 µM with HeLa; 8 µM in the experiment on Ishikawa. The IC50 was 2.7 µM with KLE; 6.4 µM with MCF-7; 10.5 µM in the experiment with MDA-MB-231; 5 µM with OVCAR-3; 0.1 µM in the experiment on RL-95-2; 4.8 µM in the experiment on SKOV-3. Also, the IC50 in the experiment with ZR-75-1 worked out at 4.6 µM.
With `C[C@]12CCC3c4ccc(O)cc4CCC3C1C[C@@](CO)(CCCCCCCCCCNCCc1ccccn1)[C@@H]2O.[Cl][Pt][Cl]` (stereo partly drawn) [derivative 14 (∘ = 2, p = 8), 16β-hydroxymethyl-16α-[10-(2-pyridin-2-yl-ethylamino)-decyl]-1,3,5(10)-estratrien-3,17β-diol dichloroplatinum (II)], the IC50 was 2 µM with A2780cp; 1.65 µM in the experiment with A2780wt; 2.4 µM with HEC-1A; 3.3 µM with HS578T; 6.8 µM in the experiment with HeLa; 2.2 µM in the experiment with Ishikawa. In addition, the IC50 was 3.7 µM in the experiment with KLE; 4 µM in the experiment on MCF-7; 4 µM with MDA-MB-231; 9.5 µM in the experiment on OVCAR-3; 3.1 µM in the experiment on RL-95-2; 5.8 µM in the experiment on SKOV-3. For the same compound, the IC50 in the experiment with ZR-75-1 is 2.5 µM.
